# Results taken from US11931424B2, “Combination MCL-1 inhibitors with anti-body drug conjugates” (Gilead Sciences, Inc., priority 2021, dated 2024).
# Columns and labels:
# [1] = system: panel of haematalogical cancer cell lines; test: Compound A with BTK inhibitors, 72-hour in vitro proliferation assays; type: cell-based; details: combination Compound A × listed BTK inhibitor, 72-hour proliferation
# [2] = system: panel of breast cancer cell lines; test: Compound A with targeted agents and chemotherapies, 72-hour in vitro proliferation assays; type: cell-based; details: compound A × partner, 72-hour proliferation
structure (smiles),measurement,setting,value
CC#CC(=O)N1CCC[C@H]1c1nc(-c2ccc(C(=O)Nc3ccccn3)cc2)c2c(N)nccn12 [Acalabrutinib],Best CI,[1]; HBL-1 cells,0.09
same,Best CI Level,[1]; HBL-1 cells,55
same,Bliss Volume,[1]; HBL-1 cells,4.86
same,HSA volume,[1]; HBL-1 cells,9.39
same,Loewe Volume,[1]; HBL-1 cells,9.09
same,Synergy Score,[1]; HBL-1 cells,7.28
same,Best CI,[1]; OCI-Ly10 cells,0.69
same,Best CI Level,[1]; OCI-Ly10 cells,80
same,Bliss Volume,[1]; OCI-Ly10 cells,−1.82
same,HSA volume,[1]; OCI-Ly10 cells,0.62
same,Loewe Volume,[1]; OCI-Ly10 cells,−0.84
same,Synergy Score,[1]; OCI-Ly10 cells,1.59
same,Best CI,[1]; SU-DHL-2 cells,0.39
same,Best CI Level,[1]; SU-DHL-2 cells,20
same,Bliss Volume,[1]; SU-DHL-2 cells,1.10
same,HSA volume,[1]; SU-DHL-2 cells,1.30
same,Loewe Volume,[1]; SU-DHL-2 cells,2.29
same,Synergy Score,[1]; SU-DHL-2 cells,1.76
same,Best CI,[1]; SU-DHL-4 cells,0.90
same,Best CI Level,[1]; SU-DHL-4 cells,80
same,Bliss Volume,[1]; SU-DHL-4 cells,0.66
same,HSA volume,[1]; SU-DHL-4 cells,−3.54
same,Loewe Volume,[1]; SU-DHL-4 cells,−2.10
same,Synergy Score,[1]; SU-DHL-4 cells,1.02
same,Best CI,[1]; SU-DHL-8 cells,0.79
same,Best CI Level,[1]; SU-DHL-8 cells,20
same,Bliss Volume,[1]; SU-DHL-8 cells,3.28
same,HSA volume,[1]; SU-DHL-8 cells,−5.31
same,Loewe Volume,[1]; SU-DHL-8 cells,−3.08
same,Synergy Score,[1]; SU-DHL-8 cells,0.52
same,Best CI,[1]; TMD8 cells,0.09
same,Best CI Level,[1]; TMD8 cells,80
same,Bliss Volume,[1]; TMD8 cells,2.07
same,HSA volume,[1]; TMD8 cells,3.89
same,Loewe Volume,[1]; TMD8 cells,2.90
same,Synergy Score,[1]; TMD8 cells,3.60
same,Best CI,[1]; U-2932 cells,0.49
same,Best CI Level,[1]; U-2932 cells,65
same,Bliss Volume,[1]; U-2932 cells,5.67
same,HSA volume,[1]; U-2932 cells,7.07
same,Loewe Volume,[1]; U-2932 cells,7.67
same,Synergy Score,[1]; U-2932 cells,4.74
CCOc1cc2ncc(C#N)c(Nc3ccc(OCc4ccccn4)c(Cl)c3)c2cc1NC(=O)/C=C/CN(C)C [Neratinib],Best CI,[2]; AU565 cell line,0.40
same,Bliss Volume,[2]; AU565 cell line,18.09
same,HSA volume,[2]; AU565 cell line,11.74
same,Loewe Volume,[2]; AU565 cell line,10.72
same,Synergy Score,[2]; AU565 cell line,19.43
same,Best CI,[2]; BT-20 cell line,0.05
same,Bliss Volume,[2]; BT-20 cell line,38.29
same,HSA volume,[2]; BT-20 cell line,28.06
same,Loewe Volume,[2]; BT-20 cell line,28.33
same,Synergy Score,[2]; BT-20 cell line,58.64
same,Best CI,[2]; CAL-51 cell line,0.29
same,Bliss Volume,[2]; CAL-51 cell line,6.99
same,HSA volume,[2]; CAL-51 cell line,4.62
same,Loewe Volume,[2]; CAL-51 cell line,6.71
same,Synergy Score,[2]; CAL-51 cell line,14.86
same,Best CI,[2]; CAL-85-1 cell line,0.13
same,Bliss Volume,[2]; CAL-85-1 cell line,22.07
same,HSA volume,[2]; CAL-85-1 cell line,18.05
same,Loewe Volume,[2]; CAL-85-1 cell line,16.51
same,Synergy Score,[2]; CAL-85-1 cell line,28.31
same,Best CI,[2]; CAL-120 cell line,0.82
same,Bliss Volume,[2]; CAL-120 cell line,4.43
same,HSA volume,[2]; CAL-120 cell line,4.29
same,Loewe Volume,[2]; CAL-120 cell line,3.99
same,Synergy Score,[2]; CAL-120 cell line,11.20
same,Best CI,[2]; CAL-148 cell line,0.21
same,Bliss Volume,[2]; CAL-148 cell line,18.81
same,HSA volume,[2]; CAL-148 cell line,13.97
same,Loewe Volume,[2]; CAL-148 cell line,17.68
same,Synergy Score,[2]; CAL-148 cell line,29.60
same,Best CI,[2]; CAMA-1 cell line,0.40
same,Bliss Volume,[2]; CAMA-1 cell line,26.19
same,HSA volume,[2]; CAMA-1 cell line,5.28
same,Loewe Volume,[2]; CAMA-1 cell line,3.50
same,Synergy Score,[2]; CAMA-1 cell line,6.88
same,Best CI,[2]; DU-4475 cell line,0.43
same,Bliss Volume,[2]; DU-4475 cell line,10.55
same,HSA volume,[2]; DU-4475 cell line,1.06
same,Loewe Volume,[2]; DU-4475 cell line,0.39
same,Synergy Score,[2]; DU-4475 cell line,2.06
same,Best CI,[2]; EVSA-T cell line,0.51
same,Bliss Volume,[2]; EVSA-T cell line,2.50
same,HSA volume,[2]; EVSA-T cell line,1.44
same,Loewe Volume,[2]; EVSA-T cell line,1.31
same,Synergy Score,[2]; EVSA-T cell line,1.92
same,Best CI,[2]; HCC38,1.06
same,Bliss Volume,[2]; HCC38,17.98
same,HSA volume,[2]; HCC38,8.02
same,Loewe Volume,[2]; HCC38,11.04
same,Synergy Score,[2]; HCC38,11.55
same,Best CI,[2]; HCC70,0.09
same,Bliss Volume,[2]; HCC70,36.07
same,HSA volume,[2]; HCC70,21.70
same,Loewe Volume,[2]; HCC70,21.51
same,Synergy Score,[2]; HCC70,42.47
same,Best CI,[2]; HCC1143,0.47
same,Bliss Volume,[2]; HCC1143,14.84
same,HSA volume,[2]; HCC1143,7.69
same,Loewe Volume,[2]; HCC1143,8.83
same,Synergy Score,[2]; HCC1143,12.39
same,Best CI,[2]; HCC1569,0.76
same,Bliss Volume,[2]; HCC1569,17.69
same,HSA volume,[2]; HCC1569,11.68
same,Loewe Volume,[2]; HCC1569,14.89
same,Synergy Score,[2]; HCC1569,23.33
same,Best CI,[2]; HCC1806,0.15
same,Bliss Volume,[2]; HCC1806,25.34
same,HSA volume,[2]; HCC1806,19.39
same,Loewe Volume,[2]; HCC1806,21.61
same,Synergy Score,[2]; HCC1806,37.41
same,Best CI,[2]; HCC1937,0.84
same,Bliss Volume,[2]; HCC1937,13.93
same,HSA volume,[2]; HCC1937,5.77
same,Loewe Volume,[2]; HCC1937,10.37
same,Synergy Score,[2]; HCC1937,13.10
same,Best CI,[2]; HCC1954,0.06
same,Bliss Volume,[2]; HCC1954,37.73
same,HSA volume,[2]; HCC1954,19.30
same,Loewe Volume,[2]; HCC1954,19.31
same,Synergy Score,[2]; HCC1954,38.93
same,Best CI,[2]; HCC2218,0.05
same,Bliss Volume,[2]; HCC2218,30.06
same,HSA volume,[2]; HCC2218,10.84
same,Loewe Volume,[2]; HCC2218,8.50
same,Synergy Score,[2]; HCC2218,20.85
same,Best CI,[2]; HDQ-P1,0.57
same,Bliss Volume,[2]; HDQ-P1,10.17
same,HSA volume,[2]; HDQ-P1,9.28
same,Loewe Volume,[2]; HDQ-P1,9.93
same,Synergy Score,[2]; HDQ-P1,17.02
same,Best CI,[2]; HMC-1-8,0.24
same,Bliss Volume,[2]; HMC-1-8,19.74
same,HSA volume,[2]; HMC-1-8,14.99
same,Loewe Volume,[2]; HMC-1-8,15.17
same,Synergy Score,[2]; HMC-1-8,30.76
same,Best CI,[2]; JIMT-1,0.18
same,Bliss Volume,[2]; JIMT-1,10.52
same,HSA volume,[2]; JIMT-1,11.00
same,Loewe Volume,[2]; JIMT-1,11.11
same,Synergy Score,[2]; JIMT-1,17.62
O=C(c1cc(Cc2n[nH]c(=O)c3ccccc23)ccc1F)N1CCN(C(=O)C2CC2)CC1 [Olaparib],Best CI,[2]; AU565 cell line,0.75
same,Bliss Volume,[2]; AU565 cell line,2.11
same,HSA volume,[2]; AU565 cell line,−1.92
same,Loewe Volume,[2]; AU565 cell line,0.98
same,Synergy Score,[2]; AU565 cell line,2.27
same,Best CI,[2]; BT-20 cell line,0.88
same,Bliss Volume,[2]; BT-20 cell line,0.80
same,HSA volume,[2]; BT-20 cell line,0.38
same,Loewe Volume,[2]; BT-20 cell line,0.63
same,Synergy Score,[2]; BT-20 cell line,4.78
same,Best CI,[2]; CAL-51 cell line,0.55
same,Bliss Volume,[2]; CAL-51 cell line,1.50
same,HSA volume,[2]; CAL-51 cell line,1.03
same,Loewe Volume,[2]; CAL-51 cell line,2.21
same,Synergy Score,[2]; CAL-51 cell line,1.89
same,Best CI,[2]; CAL-85-1 cell line,0.67
same,Bliss Volume,[2]; CAL-85-1 cell line,4.52
same,HSA volume,[2]; CAL-85-1 cell line,5.66
same,Loewe Volume,[2]; CAL-85-1 cell line,6.67
same,Synergy Score,[2]; CAL-85-1 cell line,5.10
same,Best CI,[2]; CAL-120 cell line,0.85
same,Bliss Volume,[2]; CAL-120 cell line,3.31
same,HSA volume,[2]; CAL-120 cell line,−3.93
same,Loewe Volume,[2]; CAL-120 cell line,−3.49
same,Synergy Score,[2]; CAL-120 cell line,0.11
same,Best CI,[2]; CAL-148 cell line,0.27
same,Bliss Volume,[2]; CAL-148 cell line,3.34
same,HSA volume,[2]; CAL-148 cell line,5.39
same,Loewe Volume,[2]; CAL-148 cell line,5.40
same,Synergy Score,[2]; CAL-148 cell line,9.33
same,Best CI,[2]; CAMA-1 cell line,1.12
same,Bliss Volume,[2]; CAMA-1 cell line,5.62
same,HSA volume,[2]; CAMA-1 cell line,2.59
same,Loewe Volume,[2]; CAMA-1 cell line,3.95
same,Synergy Score,[2]; CAMA-1 cell line,4.78
same,Best CI,[2]; DU-4475 cell line,1.00
same,Bliss Volume,[2]; DU-4475 cell line,7.40
same,HSA volume,[2]; DU-4475 cell line,5.68
same,Loewe Volume,[2]; DU-4475 cell line,5.80
same,Synergy Score,[2]; DU-4475 cell line,4.61
same,Best CI,[2]; EVSA-T cell line,1.17
same,Bliss Volume,[2]; EVSA-T cell line,6.05
same,HSA volume,[2]; EVSA-T cell line,3.16
same,Loewe Volume,[2]; EVSA-T cell line,3.21
same,Synergy Score,[2]; EVSA-T cell line,4.47
same,Best CI,[2]; HCC38,0.72
same,Bliss Volume,[2]; HCC38,6.78
same,HSA volume,[2]; HCC38,7.48
same,Loewe Volume,[2]; HCC38,7.01
same,Synergy Score,[2]; HCC38,8.69
same,Best CI,[2]; HCC70,0.94
same,Bliss Volume,[2]; HCC70,6.93
same,HSA volume,[2]; HCC70,6.07
same,Loewe Volume,[2]; HCC70,6.54
same,Synergy Score,[2]; HCC70,12.18
same,Best CI,[2]; HCC1143,0.24
same,Bliss Volume,[2]; HCC1143,4.87
same,HSA volume,[2]; HCC1143,3.84
same,Loewe Volume,[2]; HCC1143,3.62
same,Synergy Score,[2]; HCC1143,4.20
same,Best CI,[2]; HCC1569,0.84
same,Bliss Volume,[2]; HCC1569,7.47
same,HSA volume,[2]; HCC1569,5.26
same,Loewe Volume,[2]; HCC1569,8.00
same,Synergy Score,[2]; HCC1569,4.98
same,Best CI,[2]; HCC1806,0.21
same,Bliss Volume,[2]; HCC1806,7.25
same,HSA volume,[2]; HCC1806,8.26
same,Loewe Volume,[2]; HCC1806,8.49
same,Synergy Score,[2]; HCC1806,7.73
same,Best CI,[2]; HCC1937,0.63
same,Bliss Volume,[2]; HCC1937,2.27
same,HSA volume,[2]; HCC1937,−1.83
same,Loewe Volume,[2]; HCC1937,3.06
same,Synergy Score,[2]; HCC1937,1.77
same,Best CI,[2]; HCC1954,0.92
same,Bliss Volume,[2]; HCC1954,1.68
same,HSA volume,[2]; HCC1954,0.48
same,Loewe Volume,[2]; HCC1954,1.64
same,Synergy Score,[2]; HCC1954,4.49
same,Best CI,[2]; HCC2218,0.88
same,Bliss Volume,[2]; HCC2218,−1.34
same,HSA volume,[2]; HCC2218,−1.12
same,Loewe Volume,[2]; HCC2218,−1.71
same,Synergy Score,[2]; HCC2218,2.66
same,Best CI,[2]; HDQ-P1,0.51
same,Bliss Volume,[2]; HDQ-P1,3.81
same,HSA volume,[2]; HDQ-P1,−0.38
same,Loewe Volume,[2]; HDQ-P1,3.65
same,Synergy Score,[2]; HDQ-P1,1.22
same,Best CI,[2]; HMC-1-8,0.78
same,Bliss Volume,[2]; HMC-1-8,10.54
same,HSA volume,[2]; HMC-1-8,5.78
same,Loewe Volume,[2]; HMC-1-8,6.22
same,Synergy Score,[2]; HMC-1-8,10.86
same,Best CI,[2]; JIMT-1,0.59
same,Bliss Volume,[2]; JIMT-1,−1.42
same,HSA volume,[2]; JIMT-1,−0.34
same,Loewe Volume,[2]; JIMT-1,−1.35
same,Synergy Score,[2]; JIMT-1,0.61
same,HSA volume,[2]; KPL-1,1.49
